Assay results: patent publication US20220380347A1, “INHIBITORS OF CYSTEINE PROTEASES AND METHODS OF USE THEREOF” (Pardes Biosciences, Inc., priority 2020, published 2022)
Where two headings read alike, the source gives them in different places.

Assays:
HCoV 229E = HCoV 229E cytopathic effect (CPE) assay, CellTiter Glo; assay type: cell-based, human coronavirus (HCov) 229E; details: protection of virus-induced CPE
[1] = target: COVID-19 (nCoV-2019, SARS-CoV2) Mpro (Severe acute respiratory syndrome coronavirus 2, UniProt P0DTD1); assay: COVID-19 (nCoV-2019, SARS-CoV2) Mpro enzymatic assay; assay type: biochemical; details: 25 nM Mpro, 25 μM substrate; read-out: COVID-19 Mpro IC50
HCov OC43 = assay: HCoV OC43 cytopathic effect (CPE) assay, CellTiter Glo; assay type: cell-based, human coronavirus (HCov) OC43
229E Mpro = 229E Mpro (Human coronavirus 229E, UniProt P0C6X1); assay: 229E Mpro enzymatic assay (standard methods, SARS-CoV2 Mpro assay given as exemplary); assay type: biochemical, human coronavirus (HCov) 229E
229E Mpro, sequence (P0C6X1 2966-3267): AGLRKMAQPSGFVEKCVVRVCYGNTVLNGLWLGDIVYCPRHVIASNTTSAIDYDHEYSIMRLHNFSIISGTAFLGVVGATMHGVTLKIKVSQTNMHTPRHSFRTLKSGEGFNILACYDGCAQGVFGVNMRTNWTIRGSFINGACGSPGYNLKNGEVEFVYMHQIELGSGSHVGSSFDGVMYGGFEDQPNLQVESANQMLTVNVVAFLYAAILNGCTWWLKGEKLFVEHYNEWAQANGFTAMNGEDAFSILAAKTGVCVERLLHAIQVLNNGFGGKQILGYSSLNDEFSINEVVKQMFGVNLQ
Procedure, shortened: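 IC50 for 229E Mpro by standard methods; exemplary SARS-CoV-2 protocol used C-His6-tagged Mpro from E. coli, 25 nM enzyme, 25 μM substrate (Km 13.5 μM), in Tris-HCl pH 7.3, NaCl, EDTA, TCEP, 0.1% BSA. Inhibition normalised to no-compound and full-effect controls; four-parameter fit.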

[2] = test system: cells without virus infection; assay: Cytotoxicity in parallel to the 229E CPE assay, without virus infection, CellTiter Glo; details: read-out: 229E CC50; without virus infection
Procedure: (§1) Reagents and instruments used in this assay include luminescent cell viability assay kit CellTiter Glo (Promega) and Microplate Reader Synergy2 (BioTek).
(§2) The cytotoxicity of compounds was assessed under the same conditions, but without virus infection, in parallel. Cell viability was measured with CellTiter Glo. The antiviral activity and cytotoxicity of compounds were expressed as % Inhibition and % Viability, respectively, and calculated with formulas.

[3] = as above; details: 229E CC50, without virus infection
Procedure: as §1, §2

[4] = Betacoronavirus 1, OC43, read-out: OC43 IC50 (uM) MEDIAN, median

COc1cncc(C(C(=O)NC2CCCCC2)N(C(=O)[C@H]2C[C@@H](O)CN2C#N)c2ccc(C(C)(C)C)cc2)c1 (single isomer, unassigned) [679 Isomer 2]
EC50 (HCoV 229E): 2 to 10 µM | IC50 [1]: 10 to 30 µM | IC50 (HCov OC43; read-out: OC43 IC50 (uM) MEDIAN, median): 2 to 10 µM | EC50 (229E Mpro; read-out: 229E Mpro EC50): < 2 µM | CC50 [2]: 10 to 30 µM

C[C@@H]1C[C@H](C(=O)N(c2ccc(C(C)(C)C)cc2)C(C(=O)NC2CCCCC2)c2cccnc2)N(C#N)C1 (single isomer, unassigned) [Compound 232 Isomer 2]
EC50 (HCoV 229E; unidentified human coronavirus): < 2 µM | IC50 [1]: 2 to 10 µM | IC50 (HCov OC43; [4]): 2 to 10 µM | EC50 (229E Mpro; 229E Mpro EC50): < 2 µM | CC50 [3]: 10 to 30 µM

CC1(C)C[C@H](C(=O)N(c2ccc(C(C)(C)C)cc2)C(C(=O)NC2CCCCC2)c2cccnc2)N(C#N)C1 (single isomer, unassigned) [Compound 268 Isomer 2]
EC50 (HCoV 229E; unidentified human coronavirus): < 2 µM | IC50 [1]: < 2 µM | IC50 (HCov OC43; [4]): 2 to 10 µM | EC50 (229E Mpro; 229E Mpro EC50): < 2 µM | CC50 [3]: 10 to 30 µM

COc1cncc(C(C(=O)NC2CCCCC2)N(C(=O)[C@H]2C[C@@H](O)CN2C#N)c2ccc(C(C)(C)C)cc2)c1 (single isomer, unassigned) [679 Isomer 1]
EC50 (HCoV 229E; unidentified human coronavirus): < 2 µM | IC50 [1]: < 2 µM | IC50 (HCov OC43; [4]): < 2 µM | EC50 (229E Mpro; 229E Mpro EC50): < 2 µM | CC50 [2]: > 30 µM

CC(C)(C)c1ccc(N(C(=O)c2cnc[nH]2)C(C(=O)NC2CCCCC2)c2cncnc2C#N)cc1 (stereo not shown) [Compound 103, N-(4-(tert-butyl)phenyl)-N-(1-(4-cyanopyrimidin-5-yl)-2-(cyclohexylamino)-2-oxoethyl)-1H-imidazole-5-carboxamide]
EC50 (HCoV 229E; unidentified human coronavirus): 10 to 30 µM | IC50 [1]: 10 to 30 µM | EC50 (229E Mpro; 229E Mpro EC50): 2 to 10 µM | CC50 [3]: > 30 µM

CC(C)(C)c1ccc(N(C(=O)[C@H]2COCCN2C#N)C(C(=O)NC2CCCCC2)c2cccnc2)cc1 (single isomer, unassigned) [Compound 202 Isomer 2]
EC50 (HCoV 229E): < 2 µM | IC50 [1]: < 2 µM | IC50 (HCov OC43; [4]): < 2 µM | EC50 (229E Mpro; read-out: 229E Mpro EC50): < 2 µM | CC50 [3]: > 30 µM

C[C@@H]1CC[C@H](C(=O)N(c2ccc(C(C)(C)C)cc2)C(C(=O)NC2CCCCC2)c2cccnc2)N1C#N (single isomer, unassigned) [Compound 244 Isomer 1]
EC50 (HCoV 229E; unidentified human coronavirus): < 2 µM | IC50 [1]: 2 to 10 µM | EC50 (229E Mpro; 229E Mpro EC50): < 2 µM | CC50 [3]: > 30 µM

CC(C)(C)c1ccc(N(C(=O)C2CN(C#N)C2)C(C(=O)NC2CCCCC2)c2cccnc2)cc1 (stereo not shown) [Compound 125, N-(4-tert-butylphenyl)-1-cyano-N-[2-(cyclohexylamino)-2-oxo-1-(3-pyridyl)ethyl]azetidine-3-carboxamide]
EC50 (HCoV 229E; unidentified human coronavirus): 2 to 10 µM | IC50 [1]: 10 to 30 µM | EC50 (229E Mpro; 229E Mpro EC50): 10 to 30 µM | CC50 [3]: 10 to 30 µM
